From ChEMBL document CHEMBL4507301 (2021)

Tests used:
[1] = target: BDNF/NT-3 growth factors receptor (Homo sapiens) (UniProt Q16620); settings: Compound concentration 1000.0 nM
[2] = target: cAMP-dependent protein kinase catalytic subunit alpha (Homo sapiens) (UniProt P17612); settings: Compound concentration 1000.0 nM
[3] = target: Serine/threonine-protein kinase VRK2 (Homo sapiens) (UniProt Q86Y07); settings: Compound concentration 1000.0 nM
[4] = target: Tyrosine-protein kinase ABL1 (Homo sapiens) (UniProt P00519); settings: Compound concentration 1000.0 nM
[5] = target: Inhibitor of nuclear factor kappa-B kinase subunit epsilon (Homo sapiens) (UniProt Q14164); settings: Compound concentration 1000.0 nM
[6] = target: Insulin receptor-related protein (Homo sapiens) (UniProt P14616); settings: Compound concentration 1000.0 nM
[7] = target: Phosphatidylinositol 4-phosphate 3-kinase C2 domain-containing subunit beta (Homo sapiens) (UniProt O00750); settings: Compound concentration 1000.0 nM
[8] = test system: Tyrosine-protein kinase ABL1 (Homo sapiens), P00519 [M351T]; settings: Compound concentration 1000.0 nM
[9] = target: Mitogen-activated protein kinase kinase kinase 2 (Homo sapiens) (UniProt Q9Y2U5); settings: Compound concentration 1000.0 nM
[10] = test system: Mast/stem cell growth factor receptor Kit (Homo sapiens), P10721 [V559D]; settings: Compound concentration 1000.0 nM
[11] = target: SRSF protein kinase 2 (Homo sapiens) (UniProt P78362); settings: Compound concentration 1000.0 nM
[12] = test system: Tyrosine-protein kinase ABL1 (Homo sapiens), P00519 [Y253F]; settings: Compound concentration 1000.0 nM
[13] = target: Tyrosine-protein kinase ABL2 (Homo sapiens) (UniProt P42684); settings: Compound concentration 1000.0 nM
[14] = target: RAF proto-oncogene serine/threonine-protein kinase (Homo sapiens) (UniProt P04049); settings: Compound concentration 1000.0 nM
[15] = target: Cyclin-dependent kinase-like 5 (Homo sapiens) (UniProt O76039); settings: Compound concentration 1000.0 nM
[16] = target: Rhodopsin kinase GRK1 (Homo sapiens) (UniProt Q15835); settings: Compound concentration 1000.0 nM
[17] = test system: Epidermal growth factor receptor (Homo sapiens), P00533 [L858R,T790M]; settings: Compound concentration 1000.0 nM
[18] = target: Serine/threonine-protein kinase MAK (Homo sapiens) (UniProt P20794); settings: Compound concentration 1000.0 nM
[19] = target: Dual specificity protein kinase CLK4 (Homo sapiens) (UniProt Q9HAZ1); settings: Compound concentration 1000.0 nM
[20] = target: Muscle, skeletal receptor tyrosine-protein kinase (Homo sapiens) (UniProt O15146); settings: Compound concentration 1000.0 nM
[21] = target: Calcium/calmodulin-dependent protein kinase type II subunit gamma (Homo sapiens) (UniProt Q13555); settings: Compound concentration 1000.0 nM
[22] = target: Homeodomain-interacting protein kinase 4 (Homo sapiens) (UniProt Q8NE63); settings: Compound concentration 1000.0 nM
[23] = target: MAP kinase-interacting serine/threonine-protein kinase 1 (Homo sapiens) (UniProt Q9BUB5); settings: Compound concentration 1000.0 nM
[24] = target: Dual serine/threonine and tyrosine protein kinase (Homo sapiens) (UniProt Q6XUX3); settings: Compound concentration 1000.0 nM
[25] = target: Muscarinic acetylcholine receptor M2 (Homo sapiens) (UniProt P08172); settings: Compound concentration 10.0 uM
[26] = test system: Mast/stem cell growth factor receptor Kit (Homo sapiens), P10721 [V559D,V654A]; settings: Compound concentration 1000.0 nM
[27] = target: Serine/threonine-protein kinase MARK1 (Homo sapiens) (UniProt Q9P0L2); settings: Compound concentration 1000.0 nM
[28] = target: 5-hydroxytryptamine receptor 2B (Homo sapiens) (UniProt P41595); settings: Compound concentration 10.0 uM
[29] = test system: Proto-oncogene tyrosine-protein kinase receptor Ret (Homo sapiens), P07949 [V804M]; settings: Compound concentration 1000.0 nM
[30] = target: cAMP-dependent protein kinase catalytic subunit beta (Homo sapiens) (UniProt P22694); settings: Compound concentration 1000.0 nM
[31] = test system: Proto-oncogene tyrosine-protein kinase receptor Ret (Homo sapiens), P07949 [V804L]; settings: Compound concentration 1000.0 nM
[32] = target: Cyclin-dependent kinase 3 (Homo sapiens) (UniProt Q00526); settings: Compound concentration 1000.0 nM
[33] = target: Serine/threonine-protein kinase MRCK beta (Homo sapiens) (UniProt Q9Y5S2); settings: Compound concentration 1000.0 nM
[34] = target: Discoidin domain-containing receptor 2 (Homo sapiens) (UniProt Q16832); settings: Compound concentration 1000.0 nM
[35] = target: Membrane-associated tyrosine- and threonine-specific cdc2-inhibitory kinase (Homo sapiens) (UniProt Q99640); settings: Compound concentration 1000.0 nM
[36] = target: Serine/threonine-protein kinase D2 (Homo sapiens) (UniProt Q9BZL6); settings: Compound concentration 1000.0 nM
[37] = target: Fibroblast growth factor receptor 1 (Homo sapiens) (UniProt P11362); settings: Compound concentration 1000.0 nM
[38] = target: Dual specificity protein kinase CLK3 (Homo sapiens) (UniProt P49761); settings: Compound concentration 1000.0 nM
[39] = target: Casein kinase I isoform alpha-like (Homo sapiens) (UniProt Q8N752); settings: Compound concentration 1000.0 nM
[40] = target: GABA-A receptor; anion channel (Rattus norvegicus) (UniProt O09028+P15431+P18506+P18508+P19969+P20236+P23574+P23576+P28471+P28473+P30191+P62813+P63079+P63138+Q91ZM7+Q9ES14); settings: Compound concentration 10.0 uM
[41] = target: Serine/threonine-protein kinase TNNI3K (Homo sapiens) (UniProt Q59H18); settings: Compound concentration 1000.0 nM
[42] = target: Serine/threonine-protein kinase D1 (Homo sapiens) (UniProt Q15139); settings: Compound concentration 1000.0 nM
[43] = target: Tyrosine-protein kinase Srms (Homo sapiens) (UniProt Q9H3Y6); settings: Compound concentration 1000.0 nM
Chain of Tyrosine-protein kinase Srms (Homo sapiens) (Q9H3Y6 whole entry): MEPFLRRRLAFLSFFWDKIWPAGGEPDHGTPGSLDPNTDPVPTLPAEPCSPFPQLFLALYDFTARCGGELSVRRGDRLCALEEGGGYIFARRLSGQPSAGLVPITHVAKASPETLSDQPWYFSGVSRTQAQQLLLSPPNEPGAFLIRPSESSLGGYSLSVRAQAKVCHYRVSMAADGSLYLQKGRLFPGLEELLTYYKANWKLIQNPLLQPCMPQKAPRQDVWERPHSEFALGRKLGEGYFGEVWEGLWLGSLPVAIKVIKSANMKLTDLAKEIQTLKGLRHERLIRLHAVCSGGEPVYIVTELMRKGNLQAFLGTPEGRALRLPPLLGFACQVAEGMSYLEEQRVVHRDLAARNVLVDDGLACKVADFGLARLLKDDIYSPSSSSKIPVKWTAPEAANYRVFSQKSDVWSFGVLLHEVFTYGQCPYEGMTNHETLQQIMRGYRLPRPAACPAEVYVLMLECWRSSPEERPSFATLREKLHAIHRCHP

Chain of Mitogen-activated protein kinase kinase kinase 2 (Homo sapiens) (Q9Y2U5 whole entry): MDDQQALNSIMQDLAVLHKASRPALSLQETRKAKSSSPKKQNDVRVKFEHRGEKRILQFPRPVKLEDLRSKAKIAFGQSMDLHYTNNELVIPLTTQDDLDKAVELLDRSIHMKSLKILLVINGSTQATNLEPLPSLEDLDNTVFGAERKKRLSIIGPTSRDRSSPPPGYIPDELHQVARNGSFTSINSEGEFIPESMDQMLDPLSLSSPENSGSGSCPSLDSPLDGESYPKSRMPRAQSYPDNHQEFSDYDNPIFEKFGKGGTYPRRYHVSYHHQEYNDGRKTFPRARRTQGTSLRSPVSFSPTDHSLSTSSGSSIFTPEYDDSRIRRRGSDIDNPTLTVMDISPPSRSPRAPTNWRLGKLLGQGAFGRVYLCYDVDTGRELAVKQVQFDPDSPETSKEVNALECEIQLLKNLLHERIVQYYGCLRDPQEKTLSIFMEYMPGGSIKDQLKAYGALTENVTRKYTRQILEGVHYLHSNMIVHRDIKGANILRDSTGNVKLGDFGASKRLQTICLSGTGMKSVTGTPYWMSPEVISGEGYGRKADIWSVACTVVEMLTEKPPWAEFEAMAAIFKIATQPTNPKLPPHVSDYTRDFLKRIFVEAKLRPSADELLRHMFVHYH
Chain of Mast/stem cell growth factor receptor Kit (Homo sapiens), P10721 [V559D,V654A] (P10721 whole entry V559D/V654A): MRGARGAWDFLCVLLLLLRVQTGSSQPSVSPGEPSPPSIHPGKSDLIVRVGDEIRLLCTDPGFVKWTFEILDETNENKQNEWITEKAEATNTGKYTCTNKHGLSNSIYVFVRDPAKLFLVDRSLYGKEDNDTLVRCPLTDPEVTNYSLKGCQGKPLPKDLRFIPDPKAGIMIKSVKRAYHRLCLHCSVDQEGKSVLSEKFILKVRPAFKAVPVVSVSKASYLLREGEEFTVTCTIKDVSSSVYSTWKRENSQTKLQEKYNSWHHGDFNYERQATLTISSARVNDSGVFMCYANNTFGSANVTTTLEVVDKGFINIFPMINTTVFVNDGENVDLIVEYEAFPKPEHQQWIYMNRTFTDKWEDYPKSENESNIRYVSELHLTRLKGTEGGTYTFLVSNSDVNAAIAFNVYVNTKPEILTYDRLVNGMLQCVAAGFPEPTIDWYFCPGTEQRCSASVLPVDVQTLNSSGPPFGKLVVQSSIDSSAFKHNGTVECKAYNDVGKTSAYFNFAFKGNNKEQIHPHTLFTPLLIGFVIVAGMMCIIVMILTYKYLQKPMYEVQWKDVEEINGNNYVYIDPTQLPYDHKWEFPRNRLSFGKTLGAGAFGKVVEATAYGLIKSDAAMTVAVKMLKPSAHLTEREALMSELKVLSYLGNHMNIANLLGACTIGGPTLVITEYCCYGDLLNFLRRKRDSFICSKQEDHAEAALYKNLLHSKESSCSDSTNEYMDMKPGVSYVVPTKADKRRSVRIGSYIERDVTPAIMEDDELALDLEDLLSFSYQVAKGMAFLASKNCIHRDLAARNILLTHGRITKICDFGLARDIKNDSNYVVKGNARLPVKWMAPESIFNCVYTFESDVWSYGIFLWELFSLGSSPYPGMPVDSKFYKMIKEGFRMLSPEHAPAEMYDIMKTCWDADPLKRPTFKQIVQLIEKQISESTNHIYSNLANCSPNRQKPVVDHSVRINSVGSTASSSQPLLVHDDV
Chain of Calcium/calmodulin-dependent protein kinase type II subunit gamma (Homo sapiens) (Q13555 whole entry): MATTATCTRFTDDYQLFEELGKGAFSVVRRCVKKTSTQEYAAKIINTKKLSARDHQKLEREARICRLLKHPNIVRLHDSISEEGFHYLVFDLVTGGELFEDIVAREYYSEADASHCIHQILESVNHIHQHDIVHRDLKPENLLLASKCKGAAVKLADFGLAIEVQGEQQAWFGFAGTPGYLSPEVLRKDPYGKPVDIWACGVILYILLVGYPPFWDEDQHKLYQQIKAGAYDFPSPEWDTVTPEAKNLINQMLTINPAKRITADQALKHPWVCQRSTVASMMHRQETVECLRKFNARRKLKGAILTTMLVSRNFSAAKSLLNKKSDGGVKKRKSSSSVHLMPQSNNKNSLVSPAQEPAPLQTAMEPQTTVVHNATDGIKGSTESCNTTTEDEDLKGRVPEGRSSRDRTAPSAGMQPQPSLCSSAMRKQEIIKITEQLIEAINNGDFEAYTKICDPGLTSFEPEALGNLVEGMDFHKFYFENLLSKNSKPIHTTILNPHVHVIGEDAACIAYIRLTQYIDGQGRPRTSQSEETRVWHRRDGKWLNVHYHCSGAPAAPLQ
Chain of Casein kinase I isoform alpha-like (Homo sapiens) (Q8N752 whole entry, canonical isoform): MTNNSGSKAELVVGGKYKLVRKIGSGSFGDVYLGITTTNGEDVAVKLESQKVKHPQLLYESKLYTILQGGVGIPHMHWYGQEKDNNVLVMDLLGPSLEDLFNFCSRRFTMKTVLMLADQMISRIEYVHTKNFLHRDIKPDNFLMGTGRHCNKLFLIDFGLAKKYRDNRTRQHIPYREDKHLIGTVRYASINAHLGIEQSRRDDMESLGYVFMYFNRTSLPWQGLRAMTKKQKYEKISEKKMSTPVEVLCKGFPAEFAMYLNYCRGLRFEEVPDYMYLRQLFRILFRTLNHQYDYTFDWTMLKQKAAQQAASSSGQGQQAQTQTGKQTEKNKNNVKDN
Chain of 5-hydroxytryptamine receptor 2B (Homo sapiens) (P41595 whole entry): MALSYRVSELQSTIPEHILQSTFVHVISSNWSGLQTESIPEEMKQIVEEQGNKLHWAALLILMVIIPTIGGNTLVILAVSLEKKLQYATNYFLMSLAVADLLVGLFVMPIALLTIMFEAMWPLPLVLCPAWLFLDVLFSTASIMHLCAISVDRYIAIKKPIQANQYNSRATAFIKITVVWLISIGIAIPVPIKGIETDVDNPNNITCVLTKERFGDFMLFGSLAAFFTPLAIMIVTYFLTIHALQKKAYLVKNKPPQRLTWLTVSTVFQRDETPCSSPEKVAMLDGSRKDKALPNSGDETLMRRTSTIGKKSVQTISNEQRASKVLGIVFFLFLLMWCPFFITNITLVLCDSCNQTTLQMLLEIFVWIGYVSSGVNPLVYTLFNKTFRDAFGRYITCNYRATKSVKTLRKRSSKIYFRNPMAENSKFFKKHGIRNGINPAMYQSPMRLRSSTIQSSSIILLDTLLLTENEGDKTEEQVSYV
Chain of Cyclin-dependent kinase-like 5 (Homo sapiens) (O76039 whole entry): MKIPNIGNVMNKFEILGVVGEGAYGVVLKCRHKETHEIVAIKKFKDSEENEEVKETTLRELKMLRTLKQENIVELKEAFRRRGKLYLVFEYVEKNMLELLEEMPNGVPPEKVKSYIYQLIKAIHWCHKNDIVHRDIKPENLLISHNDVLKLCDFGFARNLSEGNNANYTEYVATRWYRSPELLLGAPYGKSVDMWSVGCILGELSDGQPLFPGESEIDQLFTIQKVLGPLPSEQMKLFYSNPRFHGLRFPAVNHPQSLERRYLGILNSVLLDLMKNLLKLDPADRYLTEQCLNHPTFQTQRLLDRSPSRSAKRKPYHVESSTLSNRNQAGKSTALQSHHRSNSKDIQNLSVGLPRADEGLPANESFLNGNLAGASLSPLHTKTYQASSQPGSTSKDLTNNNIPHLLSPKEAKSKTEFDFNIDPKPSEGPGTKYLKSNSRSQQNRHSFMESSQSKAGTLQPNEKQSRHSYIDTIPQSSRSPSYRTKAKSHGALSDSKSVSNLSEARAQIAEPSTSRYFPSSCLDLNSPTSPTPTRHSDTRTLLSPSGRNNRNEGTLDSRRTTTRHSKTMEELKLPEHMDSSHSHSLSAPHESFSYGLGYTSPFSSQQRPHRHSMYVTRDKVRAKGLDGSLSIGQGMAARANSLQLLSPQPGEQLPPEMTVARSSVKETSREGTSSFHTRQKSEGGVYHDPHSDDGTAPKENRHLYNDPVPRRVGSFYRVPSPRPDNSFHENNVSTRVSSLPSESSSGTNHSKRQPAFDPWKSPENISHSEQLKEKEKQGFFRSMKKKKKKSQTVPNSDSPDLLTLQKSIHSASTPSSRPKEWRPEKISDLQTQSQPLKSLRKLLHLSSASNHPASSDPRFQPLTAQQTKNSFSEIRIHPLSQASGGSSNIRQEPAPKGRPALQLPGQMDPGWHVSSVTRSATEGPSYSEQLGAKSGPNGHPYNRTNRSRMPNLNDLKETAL
Chain of Serine/threonine-protein kinase VRK2 (Homo sapiens) (Q86Y07 whole entry): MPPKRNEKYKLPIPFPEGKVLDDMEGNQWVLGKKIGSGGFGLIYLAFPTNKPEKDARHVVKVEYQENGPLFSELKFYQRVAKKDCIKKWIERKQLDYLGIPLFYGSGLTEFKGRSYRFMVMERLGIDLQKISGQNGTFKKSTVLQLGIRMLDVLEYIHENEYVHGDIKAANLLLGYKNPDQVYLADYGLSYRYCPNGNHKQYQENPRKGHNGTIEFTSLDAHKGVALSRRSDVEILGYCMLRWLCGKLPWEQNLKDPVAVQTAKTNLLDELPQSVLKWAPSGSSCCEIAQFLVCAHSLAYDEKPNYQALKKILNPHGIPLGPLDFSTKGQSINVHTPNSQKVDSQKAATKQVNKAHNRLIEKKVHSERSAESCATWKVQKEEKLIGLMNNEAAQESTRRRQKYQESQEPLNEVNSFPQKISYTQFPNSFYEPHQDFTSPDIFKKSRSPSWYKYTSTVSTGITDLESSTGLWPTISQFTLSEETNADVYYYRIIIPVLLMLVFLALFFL
Chain of Mast/stem cell growth factor receptor Kit (Homo sapiens), P10721 [V559D] (P10721 whole entry V559D): as the sequence (P10721 whole entry V559D/V654A) above, with A654V counted along it

C[C@@H](c1cccc(C#N)c1)n1cc(Cl)cc(C(N)=O)c1=N [(S)-9s]
inactive: residual activity [1] 100% | residual activity [2] 100% | residual activity [3] 85% | residual activity [4] 82% | residual activity [5] 56% | residual activity [6] 100% | residual activity [7] 96% | residual activity [9] 100% | residual activity [10] 93% | residual activity [11] 100% | residual activity [12] 85% | residual activity [13] 84% | residual activity [14] 100% | residual activity [15] 89% | residual activity [16] 75% | residual activity [17] 86% | residual activity [18] 94% | residual activity [19] 100% | residual activity [20] 100% | residual activity [21] 100% | residual activity [22] 100% | residual activity [23] 86% | residual activity [24] 87% | inhibition [25] 0.11% | residual activity [26] 99% | residual activity [27] 100% | inhibition [28] 3.93% | residual activity [29] 89% | residual activity [30] 100% | residual activity [31] 86% | residual activity [32] 100% | residual activity [33] 100% | residual activity [34] 88% | residual activity [35] 100% | residual activity [36] 91% | residual activity [37] 91% | residual activity [38] 100% | residual activity [39] 82% | inhibition [40] 5.78% | residual activity [41] 100% | residual activity [42] 90% | residual activity [43] 83%
active: residual activity [8] 0%

C[C@H](c1cccc(C#N)c1)n1cc(Cl)cc(C(N)=O)c1=N [(R)-9s]
inactive: residual activity [1] 100% | residual activity [2] 100% | residual activity [3] 79% | residual activity [4] 100% | residual activity [5] 82% | residual activity [6] 100% | residual activity [7] 100% | residual activity [8] 100% | residual activity [9] 100% | residual activity [10] 83% | residual activity [11] 100% | residual activity [12] 88% | residual activity [13] 90% | residual activity [14] 100% | residual activity [15] 73% | residual activity [16] 74% | residual activity [17] 89% | residual activity [18] 100% | residual activity [19] 100% | residual activity [20] 100% | residual activity [21] 100% | residual activity [22] 100% | residual activity [23] 63% | residual activity [24] 83% | inhibition [25] -3.2% | residual activity [26] 96% | residual activity [27] 97% | inhibition [28] 9.88% | residual activity [29] 100% | residual activity [30] 98% | residual activity [31] 87% | residual activity [32] 100% | residual activity [33] 85% | residual activity [34] 100% | residual activity [35] 100% | residual activity [36] 58% | residual activity [37] 95% | residual activity [38] 100% | residual activity [39] 92% | inhibition [40] 0.16% | residual activity [41] 92% | residual activity [42] 100% | residual activity [43] 75%
